Residues, ends and D or L forms follow the SMILES beside them. *: point of attachment. Bz = O=C(c1ccccc1)*
Structure (SMILES)	melting point
O=C(Cc1ccc(F)cc1)c1ccccc1	109 to 110 °C
Cn1cc(-c2cccc(C(=O)O)c2)c(=O)c(-n2cccn2)c1	280 °C
COC(=O)Cn1nnc(NC(=O)C(c2ccccc2)c2ccccc2)n1	168 to 169 °C
C[C@H](NC(=O)C[C@@H](CCO)c1ccc(F)cc1)c1ccccc1	170 °C
CCOC(=O)COc1ccc(C(=O)Nc2ccccc2Sc2cccc(O)c2-c2nnn[nH]2)cc1	155 to 157 °C
NC(=O)CCCCC1OCC(c2cccc3ccccc23)CO1 (stereo not given)	158 to 160 °C
CC1(CN2CCN(Cc3ccccc3)C2=O)Cn2cc([N+](=O)[O-])nc2O1 (stereo not given)	180 to 181 °C
CCCCn1c(COc2ccccc2)nc2c(N)nc3ccccc3c21	172 to 173 °C
CCOC(=O)CCc1c(O)ccc2ccc(OCC(=O)OCC)cc12	112 to 113 °C
O=C(O)C(=O)CC(=O)c1ccnn1Cc1ccc(F)cc1	157 to 159 °C
O=C(O)COc1cccc2c(CC(O)CCC(c3ccccc3)c3ccccc3)coc12 (stereo not given)	155 to 157 °C
O=C1CC(c2cccc(-n3ccnc3)c2)=Nc2cc(N3CC[C@@H](O)C3)c(-c3ccc(F)cc3)cc2N1	155 to 158 °C
NS(=O)(=O)N1CC2(CCN(C(=O)Nc3nnc(-c4ccccc4)s3)CC2)c2ccccc21	> 300 °C
Cc1cc(C)n2nc(OC(=S)N(C)C)cc2n1	216 to 217 °C
Oc1ccc(-c2ncc3ncc(Nc4cccnc4)cc3n2)cc1	> 268 °C
Nc1cc(C(c2cc(F)ccc2F)S(=O)(=O)c2ccc(F)cc2)c(Cl)cn1 (stereo not given)	157 to 159 °C
Nc1cc(-n2cccn2)nc(-c2ccc(Br)o2)n1	221 to 222 °C
CCCCc1nc(C(=O)C(C)C)c(C#N)[nH]1	88 to 89 °C
COc1cc2c(c3c1OC(C)(C)C3)C(c1ccccc1)=NC(C)(C)C2	128 to 129 °C
CNC(=O)NCCN(c1ccc(Cl)cc1Cc1c(F)cccc1F)S(=O)(=O)c1ccc(OC)c(OC)c1	106 °C
COc1ccccc1Nc1cccc(C(=O)Nc2ccccc2)c1	153 to 154 °C
C(=C\c1nc(COc2ccccc2CCCn2cncn2)co1)/c1ccccc1	72 to 73 °C
CCOP(=O)(Cc1cc(C)c(O)c(C)c1)OCC	65 °C
O=C(Nc1ccc(C(=O)N2CCCCc3ccccc32)cc1)c1ccccc1OCCCCCCN1C(=O)c2ccccc2C1=O	145 to 146 °C
O=Cc1c2cccc(Cl)c2cc2c(Cl)cccc12	218 to 220 °C

Structure (SMILES)	melting point
Cc1nc(-c2cn(Cc3ccc(F)cc3)nn2)sc1C(=O)NCc1cccnc1	212 to 213 °C
O=S(=O)(Nc1ccccc1CO)C(F)(F)F	60 to 61 °C
COc1ccc(C2Cc3cc(C(F)(F)F)ccc3NC(=O)C2CO)cc1 (stereo not given)	190 °C
CC1CC(=O)NN=C1c1ccc(-n2cccc2)nc1 (stereo not given)	192 to 193 °C
NS(=O)(=O)c1c(C(=O)O)cnn1-c1cccc(Cl)n1	179 to 182 °C
CCOC(=O)COc1c(C)c(C(=O)c2ccc(C(=O)OC)cc2)n2ccccc12	84.5 °C
CS(=O)(=O)Nc1cc2occ(C(=O)O)c(=O)c2cc1Oc1ccccc1	> 250 °C
COc1ccccc1Oc1c(Cl)nc(-c2cccc(OCc3ccccc3)c2)nc1Cl	127 to 132 °C
Cc1ccc(C(=O)NC(NC(=O)Nc2ccccc2)C(Cl)(Cl)Cl)cc1 (stereo not given)	230 to 233 °C
CN(C)C(=O)COc1cccc(C=Cc2ccc3ccccc3n2)c1	104 to 106 °C
CN(C)c1cc(Oc2cccc(C(F)(F)F)c2)nc(C(=O)NN=CC(F)(F)C(F)(F)F)c1	108 to 109 °C
CC(C)(C)c1cc(C(=O)Cl)cc(C(C)(C)C)c1O	90 to 93 °C
CCCC=Cc1c(C(C)C)nc(C(C)C)c(CO)c1-c1cccc(Cl)c1	101 to 104 °C
Clc1ccc(-c2ccc(CBr)cc2)cc1	64 to 66 °C
CC(CN1CCN(c2cccc(C(F)(F)F)c2)CC1)C(O)c1ccc2c(c1)oc(=O)n2C (stereo not given)	92 °C
O=C(O)C(c1ccccc1)C1CCN(c2ccc([N+](=O)[O-])cc2)CC1 (stereo not given)	216 °C
CSc1nn2c(N3CCN(C)CC3)cc(Cl)nc2c1S(=O)(=O)c1ccccc1	> 230 °C
Cc1ccc([N+](=O)[O-])c(OCc2ccccc2)c1	49 to 51 °C
O=P(c1ccccc1)(c1ccc(F)cc1)c1ccc(F)cc1	103 to 105 °C
ON=Cc1ccc(-c2ccc(Cl)cc2)o1	139 to 141 °C
Nc1ccc(NC(=O)C=C2CC(C(=O)OCc3ccccc3)Nc3cc(Cl)cc(Cl)c32)cc1 (racemic)	80 °C
Clc1c(CBr)ccc2c(Cl)c(CBr)ccc12	219 to 221 °C
Cc1nc2cnccc2n1-c1ccc(CCO)cc1	196 to 198 °C
O=c1[nH]nnc2sccc12	175 to 176 °C
O=C(Nc1nccs1)c1ccc(-c2ccc3nnn(Cc4ccc5ncccc5c4)c3n2)cc1F	204 to 206 °C

Structure (SMILES)	melting point
COC1(c2cccc(OCc3ccc4ccccc4c3)c2)CCCOCC1 (stereo not given)	57 to 58 °C
CN1Cc2c(-c3nc(CCl)co3)ncn2-c2cccc(Cl)c2C1=O	249 to 251 °C
Cc1nc(-c2cc3cc(OCCNC[C@H](O)c4cccc(Cl)c4)ccc3o2)no1	88 to 92 °C
CCOCCC(Cc1ccc(NC(=O)NC(=O)c2ccc(C(N)=S)cc2)cc1)C(=O)OC(C)(C)C (stereo not given)	199 to 201 °C
CCCCCCCCCCCCCCCCCCOc1ccc(C(=O)C(=O)N(CC(=O)OCC)CC(=O)OCC)cc1	63 to 64 °C
O=C(O)c1ncc(Br)cc1Br	170 to 171 °C
COc1cc(C)nc(-c2cnnn2NS(=O)(=O)c2ccccc2Cl)n1	139 °C
Cc1c(C(F)(F)F)[nH]c(=O)n(-c2ccc(Br)cc2F)c1=O	188 to 189 °C
CCN(C)c1ccc(Cl)nn1	61 to 63 °C
CCOC(=O)c1c(C2CCNCC2)[nH]c(-c2cccc(C(F)(F)F)c2)c1-c1ccncc1	233 to 235 °C
CC(C)Oc1cc(-n2c(=O)cc(C(F)(F)F)[nH]c2=O)c(F)cc1Cl	195 to 197 °C
CCOC(=O)c1cnc2nc(C=CC(N)=O)c(OCC)cc2c1Nc1ccc(OC)cc1	238 to 242 °C
N#Cc1cc(F)c(N=C=S)cc1O	178 to 180 °C
O=C(Oc1ccc(O)c([N+](=O)[O-])c1)c1ccccc1	97 °C
CCOC(=O)Nc1ccc(C2=NN(c3nnc(C)s3)[C@H](C)Cc3cc4c(cc32)OCO4)cc1C	241 to 244 °C
CCNC(=O)[C@@H]1CCCN1C(=O)[C@H](C)NC(=O)c1ccccc1 (Bz-Ala-Pro-NHEt)	200 to 202 °C
CC(C)CN(Cc1nc(-c2ncn3c2[C@@H]2CCN2C(=O)c2c(Cl)cccc2-3)no1)CC(C)C	125 to 140 °C
CCN1C(=O)C(C)(C(=O)O)Oc2ccccc21 (stereo not given)	164 to 168 °C
CNC1Cc2ccc(C(=O)Cn3cnc4cc(-c5ccc(Cl)cc5)sc4c3=O)cc2C1 (stereo not given)	226 to 229 °C
C=CCNC(=O)NNC(=O)c1cccnc1	165 to 167 °C
Cc1cc2[nH]c3ccccc3n2n1	250 to 252 °C
COC(=O)c1ccc(CC2=CCc3ccc(NC(=O)CC4CCCC4)cc32)c(OC)c1	178 to 179 °C
COC(=O)c1ccc(Cn2c(C(=O)Nc3nc(-c4cc(OC)c(Cl)cc4OC)c(CCC4CCCCC4)s3)cc3cc(C)cc(C)c32)cc1	199 to 200 °C
COc1cc(OC)c(C(=O)O)c(C(F)(F)F)n1	194 to 198 °C
CCOC(=O)C1COc2c(C(=O)c3ccccc3)cc(Br)cc21 (stereo not given)	100 to 101 °C

Structure (SMILES)	melting point
CC(C)c1nc(O)cc(=O)n1C	159 °C
COc1cc(C=O)cc(OCCCC(=O)O)c1OC	90 to 92 °C
CCOC(=O)c1ccc(C=C2C(=O)COC2=O)s1	204 to 206 °C
Cc1cn(-c2ccc(NC(=O)c3ccc(Cl)c(C#Cc4ccc(NC(C)C)nn4)c3)cc2C(F)(F)F)cn1	133 to 135 °C
CC1OC(=O)c2c(O)cccc21 (stereo not given)	107 to 108 °C
COC(=O)CCCCCc1nn(-c2ccc(F)cc2)c2c1CCC2	39 to 40 °C
COC(=O)C1CCCCN1S(N)(=O)=O (stereo not given)	72 to 74 °C
COc1cc(OC)nc(OC(C(=O)O)C(C)(Oc2ccccc2)c2ccccc2)n1 (stereo not given)	50 to 55 °C
COc1ccc2[nH]cc(/C(C#N)=C/c3cccc(C(N)=O)c3)c2c1	234 °C
COC(=O)CNC(=O)c1ncccc1S	178 to 179 °C
Cc1cc(C)n2nc(C)cc2n1	70 to 73 °C
CCc1ccc(-c2ccc3c(c2)C=C(C(=O)O)CCO3)cc1	241 to 243 °C
COCCS(=O)(=O)c1ccccc1S(=O)(=O)NC(=O)Nc1nc(OC)cc(OC)n1	187 to 192 °C
N#Cc1ccc(N2CCC(O)C2)c2ccccc12 (stereo not given)	138 to 139 °C
COc1ccc(S(=O)(=O)F)cc1NC(C)=O	162 to 164 °C
CC(=O)c1sccc1CN1C(=O)C(NC(=O)Nc2cccc(C)c2)N=C(c2ccccc2F)c2ccccc21 (racemic)	222 to 223 °C
CCOC(=O)c1cn(C2CCCCC2)c2cc(C#Cc3cc(Cc4cnc(N)nc4N)cc(OC)c3OC)ccc2c1=O	228 to 230 °C
CCn1cc(C(=O)O)c(=O)c2cc(F)c(N3CCC(CNC)C3)cc21 (stereo not given)	247 to 250 °C
COc1cc2c(cc1OC)-c1c(O)c(OC)cc3c1C(C2)CN(C)C3 (stereo not given)	196 to 210 °C
CC(c1ccc(C(=O)N(C)C2CCCCC2)cc1)n1cnc2ccccc21 (stereo not given)	142 to 145 °C
CN(C)C=C(C(=O)c1cccc2c1OC(F)(F)O2)C(=O)C1CC1	118 to 119 °C
Cc1onc(-c2ccccc2)c1C(=O)NCCCN1CCN(c2cc(Cl)ccc2O)CC1	92 to 98 °C
O=C(C=Cc1ccc(Cl)cc1)N1CCN(c2ccc(OC[C@H]3CO[C@](Cn4cncn4)(c4ccc(Cl)cc4Cl)O3)cc2)CC1 (relative stereo)	185 °C
CCCCCCCCCCCCOCCOc1ccc(C(=O)OC)cc1	40 to 42 °C
Cc1ccc(-c2csc(NC(=O)c3nnn[nH]3)n2)cc1	250 to 253 °C

Reference: a melting point compilation (Tetko et al.; mined from patent text by program, amines drawn as free bases though some values may be those of a salt)
